{"source": "patent US6534094B2", "about": "“Manufacturing process of microcapsules for sustained release of water soluble peptides” (Eriochem S.A., priority 2000, dated 2003)", "origin": "cited, not measured here", "conditions": "superactive agonist of LH-RH; fold of the biological activity of LH-RH"}
{"molecule": "CCNC(=O)[C@@H]1CCCN1C(=O)[C@H](CCCNC(=N)N)NC(=O)[C@H](CC(C)C)NC(=O)[C@@H](CC(C)C)NC(=O)[C@H](Cc1ccc(O)cc1)NC(=O)[C@H](CO)NC(=O)[C@H](Cc1c[nH]c2ccccc12)NC(=O)[C@H](Cc1c[nH]cn1)NC(=O)[C@@H]1CCC(=O)N1", "note": "[leuprolide acetate]", "values": [{"measurement": "biological activity relative to LH-RH", "result": "approximately 10 times"}]}
